Legend:
BRD4(BD1) = BRD4(BD1) (Homo sapiens (Human), UniProt O60885); experiment: In vitro bromodomain inhibition assay (AlphaLISA); assay type: binding; conditions: His-tagged BRD4 BD1 200 nM, biotinylated H4-tetraacetyl peptide 200 nM
Experimental: a) In Vitro Bromodomain Inhibition Assay
To measure activity of bromodomain inhibitors, a His-epitope tagged BRD4 BD149-170 is purchased from BPS Bioscience. BRD4 binding and inhibition is assessed by monitoring the engagement of biotinylated H4-tetraacetyl peptide (H4K5/8/12/16; AnaSpec #64989-025) with the target using the AlphaLISA technology (Perkin-Elmer). Specifically, in a 384 well OptiPlate, BRD4(BD1) (200 nM final) is pre-incubated with either DMSO (final 1.0% DMSO) or a compound dilution series in DMSO. All reagents are diluted in assay buffer containing 50 mM HEPES (pH 7.4), 100 mM NaCl, 0.1% (w/v) BSA, and 0.05% (w/v) CHAPS. After a 30 min incubation at rt, H4 peptide is added (200 nM final) and the reaction is incubated an additional 30 min at rt. Alpha streptavidin donor beads and AlphaLISA nickel chelate acceptor beads are then added to a final concentration of 10 μg/mL each. After one hour, equilibration plates are read on an Envision instrument and IC50s calculated using a four parameter non-linear curve fit (results are shown in Table 2).

[1] = test system: human C-Myc transcription in MV-4-11 cells; experiment: Transcription of human C-Myc in human leukemic MV-4-11 cells (QuantiGene 2.0); assay type: cell-based; conditions: Homo sapiens, MV4-11, 4 h, inhibition of C-Myc mRNA, 4 hours treatment
Experimental: b) Transcription of Human C-Myc in Human Leukemic MV-4-11 Cells:
The effect of compounds on transcription of human C-Myc gene is monitored in human B-myelomonocytic leukemia cell line MV-4-11 (from American Type Culture Collection (ATCC), Manassas, Va., USA) using QuantiGene 2.0 assay kit (Affymetrix, Santa Clara, Calif., USA).
Typically, 8,000 MV-4-11 cells are plated in sterile 96-well plates (Costar #3598 from Fisher Scientific Canada, Ottawa, Ontario, Canada) in Iscove's medium supplemented with 10% fetal bovine serum, glutamine (2 mM), and penicillin (100 I.U.) and streptomycin (100 μg/mL) (all from Wisent Inc., St. Bruno, Quebec, Canada). Compounds are dissolved in DMSO at 30 mM. A series of 1:3 dilutions are first made in DMSO, and further 1:100 dilutions are made in serum-containing cell culture media. The final concentration of DMSO is 0.1% in cell culture media. After cells are treated with various concentrations of test compound for 4 hours, cells are lysed using Quantigene 2.0 sample processing kit (#QS0100). C-Myc mRNA is detected using a QuantiGene 2.0 assay kit (#QS0009) with gene-specific probe to human C-Myc (#SA-50182) following the manufacturer's recommendations. Luminescene signals are read on Flexstation II microplate reader (Molecular Devices, Sunnyvale, Calif., USA).

| IC50 (BRD4(BD1)) [nM] | IC50 [1] [nM] | SMILES |
| --- | --- | --- |
| 180 | 240 | Cc1cc(-c2cc3c(c(OCc4ccccc4)c2)NC(=O)CC3)cn(C)c1=O [Compound 17, 8-(benzyloxy)-6-(1,5-dimethyl-6-oxo-1,6-dihydropyridin-3-yl)-3,4-dihydroquinolin-2(1H)-one] |
| 810 | 750 | Cc1cc(-c2cc3c(c(NC4CCCCC4)c2)NC(=O)CC3)cn(C)c1=O [Compound 6, 8-(cyclohexylamino)-6-(1,5-dimethyl-6-oxo-3-pyridyl)-3,4-dihydro-1H-quinolin-2-one] |
| 350 | 2120 | Cc1cc(-c2cc3c(c(Nc4cccnc4)c2)NC(=O)CC3)cn(C)c1=O [Compound 11, 6-(1,5-dimethyl-6-oxo-3-pyridyl)-8-(3-pyridylamino)-3,4-dihydro-1H-quinolin-2-one] |
| 700 | 900 | Cc1cc(-c2cc3c(c(CNC4CCCC4)c2)NC(=O)CC3)cn(C)c1=O [Compound 19, 8-[(cyclopentylamino)methyl]-6-(1,5-dimethyl-6-oxo-3-pyridyl)-3,4-dihydro-1H-quinolin-2-one] |
| 420 | 790 | Cc1cc(-c2cc3c(c(NC4CCOCC4)c2)NC(=O)CC3)cn(C)c1=O [Compound 18, 6-(1,5-dimethyl-6-oxo-3-pyridyl)-8-(tetrahydropyran-4-ylamino)-3,4-dihydro-1H-quinolin-2-one] |
| 280 | 240 | Cc1cc(-c2cc3c(cc2Cc2ccccc2)NC(=O)CC3)cn(C)c1=O [Compound 8, 7-benzyl-6-(1,5-dimethyl-6-oxo-3-pyridyl)-3,4-dihydro-1H-quinolin-2-one] |
| 410 | 160 | Cc1cc(-c2cc3c(c(Cc4ccccc4)c2)NC(=O)CC3)cn(C)c1=O [Compound 1, 8-benzyl-6-(1,5-dimethyl-6-oxo-3-pyridyl)-3,4-dihydro-1H-quinolin-2-one] |
| 1300 | 1580 | Cc1cc(-c2cc3c(c(CN4CCCCC4)c2)NC(=O)CC3)cn(C)c1=O [Compound 13, 6-(1,5-dimethyl-6-oxo-3-pyridyl)-8-(1-piperidylmethyl)-3,4-dihydro-1H-quinolin-2-one] |
| 110 | 90 | Cc1cc(-c2cc3c(c(NCc4ccccn4)c2)NC(=O)CC3)cn(C)c1=O [Compound 12, 6-(1,5-dimethyl-6-oxo-3-pyridyl)-8-(2-pyridylmethylamino)-3,4-dihydro-1H-quinolin-2-one] |
| 280 | 90 | Cc1cc(-c2cc3c(c(NCc4ccccc4)c2)NC(=O)CC3)cn(C)c1=O [Compound 4, 8-(benzylamino)-6-(1,5-dimethyl-6-oxo-3-pyridyl)-3,4-dihydro-1H-quinolin-2-one] |
| 560 | 210 | Cc1cc(-c2cc3c(c(Cc4ccccc4)c2)N(C)C(=O)CC3)cn(C)c1=O [Compound 2, 8-benzyl-6-(1,5-dimethyl-6-oxo-3-pyridyl)-1-methyl-3,4-dihydroquinolin-2-one] |
| 350 | 190 | Cc1cc(-c2cc3c(c(N(C)c4ccccc4)c2)NC(=O)CC3)cn(C)c1=O [Compound 14, 6-(1,5-dimethyl-6-oxo-3-pyridyl)-8-(N-methylanilino)-3,4-dihydro-1H-quinolin-2-one] |
| 140 | 90 | Cc1cc(-c2ccc3c(c2Cc2ccccc2)CCC(=O)N3)cn(C)c1=O [Compound 7, 5-benzyl-6-(1,5-dimethyl-6-oxo-3-pyridyl)-3,4-dihydro-1H-quinolin-2-one] |
| 270 | 260 | Cc1cc(-c2ccc3c(c2Cc2ccccc2)CCC(=O)N3C)cn(C)c1=O [Compound 9, 5-benzyl-6-(1,5-dimethyl-6-oxo-3-pyridyl)-1-methyl-3,4-dihydroquinolin-2-one] |
| 480 | 250 | Cc1cc(-c2cc3c(cc2Cc2ccccc2)N(C)C(=O)CC3)cn(C)c1=O [Compound 10, 7-benzyl-6-(1,5-dimethyl-6-oxo-3-pyridyl)-1-methyl-3,4-dihydroquinolin-2-one] |
|  | 2620 | Cc1cc(-c2cc3c(c(Oc4ccccc4)c2)NC(=O)CC3)cn(C)c1=O [Compound 15, 6-(1,5-dimethyl-6-oxo-1,6-dihydropyridin-3-yl)-8-phenoxy-3,4-dihydroquinolin-2(1H)-one] |
|  | 180 | Cc1ccc(COc2cc(-c3cc(C)c(=O)n(C)c3)cc3c2NC(=O)CC3)nc1 [Compound 75, 6-(1,5-dimethyl-6-oxo-1,6-dihydropyridin-3-yl)-8-((5-methylpyridin-2-yl)methoxy)-3,4-dihydroquinolin-2(1H)-one] |
|  | 290 | Cc1cc(-c2cc3c(cc2Cc2ccccc2)CCC(=O)N3)cn(C)c1=O [Compound 31, 6-benzyl-7-(1,5-dimethyl-6-oxo-1,6-dihydropyridin-3-yl)-3,4-dihydroquinolin-2(1H)-one] |
| 510 | 580 | Cc1cc(-c2cc3c(c(Nc4ccccc4)c2)NC(=O)CC3)cn(C)c1=O [Compound 3, 8-anilino-6-(1,5-dimethyl-6-oxo-3-pyridyl)-3,4-dihydro-1H-quinolin-2-one] |
|  | 830 | Cc1cc(-c2cc3c(c(CNC4CCCCC4)c2)NC(=O)CC3)cn(C)c1=O [Compound 24, 8-[(cyclohexylamino)methyl]-6-(1,5-dimethyl-6-oxo-3-pyridyl)-3,4-dihydro-1H-quinolin-2-one] |
|  | 520 | Cn1cc(-c2cc3c(c(OCc4cccnc4)c2)NC(=O)CC3)cc(Cl)c1=O [Compound 80, 6-(5-chloro-1-methyl-6-oxo-1,6-dihydropyridin-3-yl)-8-(pyridin-3-yl-methoxy)-3,4-dihydroquinolin-2(1H)-one] |
